Assay results taken from patent US5336677A, “Substituted aminopyrimidines as antihypertensives” (American Home Products Corporation, priority 1992, dated 1994).
Structures can show the parent of a compound that is named as a salt.

These compounds were tested against angiotensin II receptor (assay: rat adrenal receptor binding assay, displacement of radiolabeled angiotensin II (Inhibition of 125I Angiotensin II Binding)). Settings: rat adrenal cortex membranes; 1 nM 125I-A II; 25° C.; 35 min.
Procedure: The high affinity of the compounds for the angiotensin II receptor was established using a rat adrenal receptor binding assay, measuring the displacement of radiolabeled angiotensin II from the receptor, described as follows: Anesthetize male Sprague-Dawley rats (300-400 g body weight) with CO2 and sacrifice by cervical dislocation. Dissect adrenal glands and keep in ice-cold sucrose buffer. (0.2M sucrose, 1 mM EDTA, 10 mM Trizma base, pH=7.2). Remove medulla by squashing. Mince the cortex, rinse and homogenize in a chilled ground glass tissue grinder with 15 ml sucrose buffer. Centrifuge at 3000× g for 10 min. (Sorvall RCSC centrifuge, SS34 rotor 6200 rpm). Decant supernatant through gauze. Centrifuge combined supernatants at 12,000× g for 13 min. (Beckman ultracentrifuge, 80Ti rotor, 13,000 rpm). […] (Beckman ultracentrifuge, 80Ti rotor, 38,200 rpm). All steps are carried out at 4° C. Resuspend the pellet in 0.5 mL assay buffer (50 mM Tris HCI, 5 mM MgCl2, 0.2% BSA (protease-free), pH= 7.4, 25° C.). Store on ice. Determine membrane protein by Lowry or Bradford assay with BSA as standard. The binding assay is performed in triplicate, in 12×75 mm plastic test tubes or in 96-well plate (final volume of 0.25 mL). Add 140 μL assay buffer. […] Add 50 μL membrane suspension (e.g., 10 μg protein). Preincubate for 30 min at 25° C. […] Incubate for 35 min at 25° C. Stop the incubation by adding 1 mL ice-cold buffer (assay buffer without BSA). Filter with GF/C filters on cell harvester (filters are presoaked in the assay buffer containing 1% polyethyleneimine). Rinse assay tubes 3× with 5 mL cold buffer (assay buffer without BSA). Cut and deposit the filter discs into test tubes and count on gamma counter for 1 min. […] Calculate the quantities of hot A II and the cold A II needed and make the dilution. Aliquot, seal tight, and store frozen until needed. Calculate the concentration of the total A II (hot+cold) after dilution. On the day of assay, thaw the frozen aliquot and adjust the volume to give a concentration of 5 pmole/mL (or 0.25 pmole/50 μL) with assay buffer (+protease-free BSA).

| IC50 [nM] | Structure (SMILES) |
| --- | --- |
| 61 | Cc1nc(NCc2ccc(-c3ccccc3-c3nnn[nH]3)cc2)cc(C(F)(F)F)n1 [Example 48, 2-Methyl-N-[[2'-(1H-tetrazol-5-yl)[1,1'-biphenyl]-4-yl]methyl]-6-(trifluoromethyl)-4-pyrimidinamine hydrate] |
| 20 | Cc1nc(NCc2ccc(-c3ccccc3-c3nnn[nH]3)cc2)c(C)c(C(F)(F)F)n1 [Example 44, 2,5-Dimethyl-N-[[2'-(1H-tetrazol-5-yl)[1,1'-biphenyl]-4-yl]methyl]-6-(trifluoromethyl)-4-pyrimidinamine hemihydrate] |
| 6.5 | CCc1nc(C(F)(F)F)nc(NCc2ccc(-c3ccccc3-c3nnn[nH]3)cc2)c1C(C)C [Example 40, 6-Ethyl-5-(1-methylethyl)-N-[[2'-1H-tetrazol-5-yl)[1,1'-biphenyl]-4-yl]methyl]-2-(trifluoromethyl)-4-pyrimidinamine sodium salt] |
| 850 | Cc1nc(NCc2ccc(-c3ccccc3C(=O)O)cc2)cc(C(F)(F)F)n1 [Example 51, 4'-[[[2-Methyl-6-(trifluoromethyl)-4-pyrimidinyl]amino]methyl][1,1'-biphenyl]-2-carboxylic acid sesquihydrate] |
| 200 | Cc1nc(C)c(CC(=O)O)c(NCc2ccc(-c3ccccc3-c3nnn[nH]3)cc2)n1 [Example 56, [2,6-Dimethyl-N-[(2'-(1H-tetrazol-5-yl)[1,1-biphenyl]-4-yl)methyl]-4-pyrimidinamin-5-yl]acetic acid] |
| 38 | Cc1nc(NCc2ccc(-c3ccccc3-c3nnn[nH]3)cc2)cc(C(F)(F)C(F)(F)F)n1 [Example 47, 2-Methyl-6-(pentafluoroethyl)-N-[[2'-(1H-tetrazol-5-yl)[1,1'-biphenyl]-4-yl]methyl]-4-pyrimidinamine sodium salt hydrate] |
| 7.8 | CCc1cc(NCc2ccc(-c3ccccc3-c3nnn[nH]3)cc2)nc(C)n1 [Example 38, 6-Ethyl-2-methyl-N-[[2'-(1H-tetrazol-5-yl)[1,1'-biphenyl]-4-yl]methyl]-4-pyrimidinamine acetate trihydrate] |
| 7.5 | C=CCc1c(C)nc(C)nc1NCc1ccc(-c2ccccc2-c2nnn[nH]2)cc1 [Example 53, 2,6-Dimethyl-5-(2-propenyl)-N-[(2'-(1H-tetrazol-5-yl)[1,1-biphenyl]-4-yl)methyl]-4-pyrimidinamine] |
| 41 | Cc1cccc(Cc2c(NCc3ccc(-c4ccccc4-c4nnn[nH]4)cc3)nc(C)nc2C(F)(F)F)c1 [Example 42, 2-Methyl-5-[(3-methylphenyl)methyl]-N-[[2'-(1H-tetrazol-5-yl)[1,1'-biphenyl]-4-yl]methyl]-6-(trifluoromethyl)-4-pyrimidinamine sodium salt] |
| 11 | CCc1c(NCc2ccc(-c3ccccc3-c3nnn[nH]3)cc2)nc(C)nc1C(F)(F)C(F)(F)F [Example 43, 5-Ethyl-2-methyl-N-[[2'-(1H-tetrazol-5-yl)[1,1'-biphenyl]-4-yl]methyl]-6-(pentafluoroethyl)-4-pyrimidinamine sodium salt hydrate] |
| 330 | Cc1nc(NCc2ccc(-c3ccccc3C(=O)O)cc2)cc(C(F)(F)C(F)(F)F)n1 [Example 50, 4'-[[[2-Methyl-6-(pentafluoroethyl)-4-pyrimidinyl]amino]methyl][1,1'-biphenyl]-2-carboxylic acid hemihydrate] |
| 58 | Cc1nc(C)c(Cc2cccs2)c(NCc2ccc(-c3ccccc3-c3nnn[nH]3)cc2)n1 [Example 55, 2,6-Dimethyl-5-(2-thienylmethyl)-N-[(2'-(1H-tetrazol-5-yl)[1,1-biphenyl]-4-yl)methyl]-4-pyrimidinamine] |
| 39 | FC(F)(F)C(F)(F)c1cc(NCc2ccc(-c3ccccc3-c3nnn[nH]3)cc2)nc(C2CC2)n1 [Example 37, 2-Cyclopropyl-6-(pentafluoroethyl)-N-[[2'-(1H-tetrazol-5-yl)[1,1'-biphenyl]-4-yl]methyl]-4-pyrimidinamine hydrate] |
| 2.5 | CCCc1c(CC)nc(C(F)(F)F)nc1NCc1ccc(-c2ccccc2-c2nnn[nH]2)cc1 [Example 46, 6-Ethyl-5-propyl-N-[[2'-(1H-tetrazol-5-yl)[1,1'-biphenyl]-4-yl]methyl]-2-(trifluoromethyl)-4-pyrimidinamine sodium salt] |
| 500 | Cc1cc(NCc2ccc(-c3ccccc3C(=O)O)cc2)nc(C(F)(F)F)n1 [Example 52, 4'-[[[6-Methyl-2-(trifluoromethyl)-4-pyrimidinyl]amino]methyl][1,1'-biphenyl]-2-carboxylic acid] |
| 39 | C#CCc1c(C)nc(C)nc1NCc1ccc(-c2ccccc2-c2nnn[nH]2)cc1 [Example 57, 2,6-Dimethyl-5-(2-propynyl)-N-[(2'-(1H-tetrazol-5-yl)[1,1-biphenyl]-4-yl)methyl]-4-pyrimidinamine] |
| 25 | CCCc1c(C)nc(C(F)(F)F)nc1NCc1ccc(-c2ccccc2-c2nnn[nH]2)cc1 [Example 34, 6-Methyl-5-propyl-N-[[2'-(1H-tetrazol-5-yl)[1,1'-biphenyl]-4-yl]methyl]-2-(trifluoromethyl)-4-pyrimidinamine sodium salt hemihydrate] |
| 49 | CCCc1cnc(C(F)(F)F)nc1NCc1ccc(-c2ccccc2-c2nnn[nH]2)cc1 [Example 39, 5-Propyl-N-[[2'-(1H-tetrazol-5-yl)[1,1'-biphenyl]-4-yl]methyl]-2-(trifluoromethyl)-4-pyrimidinamine sodium salt hydrate] |
| 5.6 | CCc1cc(NCc2ccc(-c3ccccc3-c3nnn[nH]3)cc2)nc(C(F)(F)F)n1 [Example 36, 6-Ethyl-N-[[2'-(1H-tetrazol-5-yl)[1,1'-biphenyl]-4-yl]methyl]-2-(trifluoromethyl)-4-pyrimidinamine sodium salt sesquihydrate] |
| 3 | Cc1nc(C(F)(F)F)nc(NCc2ccc(-c3ccccc3-c3nnn[nH]3)cc2)c1C(C)C [Example 35, 6-Methyl-5-(1-methylethyl)-N-[[2'-(1H-tetrazol-5-yl)[1,1'-biphenyl]-4-yl]methyl]-2-(trifluoromethyl)-4-pyrimidinamine sodium salt sesquihydrate] |
| 16 | C=CCc1c(C)nc(C(F)(F)F)nc1NCc1ccc(-c2ccccc2-c2nnn[nH]2)cc1 [Example 54] |

| Structure (SMILES) | IC50 [nM] |
| --- | --- |
| Cc1nc(C(F)(F)F)nc(NCc2ccc(-c3ccccc3-c3nnn[nH]3)cc2)c1Cc1ccccc1 [Example 45, 6-Methyl-5-(phenylmethyl)-N-[[2'-(1H-tetrazol-5-yl)[1,1'-biphenyl]-4-yl]methyl]-2-(trifluoromethyl)-4-pyrimidinamine sodium salt hydrate] | 48 |

These compounds were tested on A II-infused rat (assay: A II-infused rat model, antihypertensive action). Settings: 3 mg/kg id (duodenal); four hours post-administration; ganglion-blocked (mecamylamine), A II infusion 0.25 μg/kg/min.
Assay type: in vivo
Procedure: In accordance with their ability to antagonize angiotensin II, the compounds of this invention show antihypertensive action in the following A II-infused rat model. Rats are anesthetized with Dial-Urethane (0.60 mL/kg, ip) and the trachea cannulated with PE 240. Either one femoral artery and both femoral veins or the carotid artery and the corresponding jugular vein are cannulated with PE 50. If the jugular vein is cannulated, two cannulas are placed in the one vein. The initial portion of the duodenum (just distal to the stomach) is cannulated with PE 50 via a small midline incision. Arterial pressure and heart rate are measured from the arterial cannula. Ten to 15 min are allowed following surgery for stabilization of arterial pressure. Ganglion blockade is then produced by intravenous administration of mecamylamine at 3 mg/kg (1 mL/kg of a 3 mg/mL solution). Ganglion blockade causes a fall in arterial pressure of about 50 mmHg. Mecamylamine is given every 90 min throughout the remainder of the experiment. An A II infusion is then begun into the other venous cannula at 0.25 μg/kg/min (at 9.6 u Vmin). The A II infusion returns arterial pressure to or slightly above the control level. Once arterial pressure has stabilized with the A II infusion, baseline values for mean arterial pressure (MAP) and heart rate are taken. […]

| Structure (SMILES) | lowering of the A II dependent blood pressure (average) [%] |
| --- | --- |
| Cc1nc(NCc2ccc(-c3ccccc3-c3nnn[nH]3)cc2)cc(C(F)(F)C(F)(F)F)n1 [Example 47, 2-Methyl-6-(pentafluoroethyl)-N-[[2'-(1H-tetrazol-5-yl)[1,1'-biphenyl]-4-yl]methyl]-4-pyrimidinamine sodium salt hydrate] | 57 |
